Experimental data as given in patent publication US20250114460A1, “NOVEL PLK1 DEGRADATION INDUCING COMPOUND” (UPPTHERA, INC., priority 2021, published 2025).

How the values were obtained:
Type in all cases: cell-based
PLK1 = biological target: T1, PLK1 (Homo sapiens, UniProt P53350); test: Luciferase assay for PLK1 in HeLa LgBit (Plk1-HiBit KI) cell line; conditions: 300 nM compound, luminescence after 9 hours
T1 construct: endogenous in cells; host or cells: HeLa LgBit (Plk1-HiBit KI): HeLa stably expressing LgBit, with a CRISPR/Cas9 knock-in of HiBit at the endogenous PLK1 locus
T1 sequence (P53350 whole entry): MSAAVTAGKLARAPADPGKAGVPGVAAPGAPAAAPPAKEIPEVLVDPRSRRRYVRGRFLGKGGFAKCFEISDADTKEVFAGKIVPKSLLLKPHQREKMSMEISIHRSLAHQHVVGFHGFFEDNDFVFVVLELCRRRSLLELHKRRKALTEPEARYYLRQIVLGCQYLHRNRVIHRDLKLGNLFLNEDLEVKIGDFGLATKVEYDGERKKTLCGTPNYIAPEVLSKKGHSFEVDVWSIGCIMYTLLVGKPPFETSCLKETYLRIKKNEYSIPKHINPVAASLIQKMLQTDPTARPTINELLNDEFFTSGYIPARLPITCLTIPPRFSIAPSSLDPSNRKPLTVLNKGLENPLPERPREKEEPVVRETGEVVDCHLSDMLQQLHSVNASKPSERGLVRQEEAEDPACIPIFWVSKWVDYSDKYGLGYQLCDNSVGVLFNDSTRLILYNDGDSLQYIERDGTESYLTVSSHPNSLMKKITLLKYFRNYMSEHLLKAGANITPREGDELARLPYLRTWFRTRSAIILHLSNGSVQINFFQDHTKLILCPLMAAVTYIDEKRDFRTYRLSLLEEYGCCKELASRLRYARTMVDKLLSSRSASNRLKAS
Outline: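 Luminescence, followed in real time after adding compound at 300 nM and Endurazine substrate, is reported relative to DMSO-treated wells. Cells are a HeLa LgBit line with a Plk1-HiBit knock-in, synchronized by 2 mM thymidine for 24 h, released, and cultured 18 h before treatment.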

NCI-H526 cell line = test: Cell viability assay for H526 cell (EZ-Cytox); conditions: Homo sapiens, NCI-H526, 120 h; H526 cells, 5 days, 3000 nM to 0.46 nM
Outline: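 Read-out was EZ-Cytox colorimetric absorbance at 450 nm, taken after brief plate shaking, with IC50 derived. Before reading, H526 cells had been cultured with test compound for 5 days.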

MRC-5 cell line = test: Cell viability assay for MRC-5 cell line (EZ-Cytox); conditions: Homo sapiens, MRC5, 120 h; MRC-5 normal cell line, 5 days, 10000 nM to 1.52 nM; N.D. = no cytotoxicity until 10 μM; read-out: Activity: IC50 value of Exemplary Compound to MRC-5 cell line
Method: 4. Cell Viability Assay for MRC-5 Cell Line
(1) Culture of MRC-5 Cell Line
Passage of cultured cells was maintained within P15.
(2) Treatment of Compounds of the Present Invention
Then, it was cultured in 37° C.
(3) Cytotoxicity Experiment
CO2 incubator for 4 hours.

COc1cc(C(=O)NC2CCN(C(=O)CCN3CCN(c4cccc5c4CN(C4CCC(=O)NC4=O)C5=O)CC3)CC2)ccc1Nc1ncc2c(n1)N(C1CCCC1)CC(F)(F)C(=O)N2C (stereo not drawn) [Compound 81, 4-((9-cyclopentyl-7,7-difluoro-5-methyl-6-oxo-6,7,8,9-tetrahydro-5H-pyrimido[4,5-b][1,4]diazepin-2-yl)amino)-N-(1-(3-(4-(2-(2,6-dioxopiperidin-3-yl)-1-oxoisoindolin-4-yl)piperazin-1-yl)propanoyl)piperidin-4-yl)-3-methoxybenzamide]
Activity: ratio of the luminescense value of each Exemplary Compound treatment group to DMSO treatment group (PLK1): ++ (++<0.6) | IC50 (NCI-H526 cell line): < 0.05 µM | IC50 (MRC-5 cell line): > 10 µM

COc1cc(C(=O)NC2CCN(C(=O)CCN3CCN(c4ccc5c(c4)CN(C4CCC(=O)NC4=O)C5=O)CC3)CC2)ccc1Nc1ncc2c(n1)N(C1CCCC1)CC(F)(F)C(=O)N2C (stereo not drawn) [Compound 82, 4-((9-cyclopentyl-7,7-difluoro-5-methyl-6-oxo-6,7,8,9-tetrahydro-5H-pyrimido[4,5-b][1,4]diazepin-2-yl)amino)-N-(1-(3-(4-(2-(2,6-dioxopiperidin-3-yl)-1-oxoisoindolin-5-yl)piperazin-1-yl)propanoyl)piperidin-4-yl)-3-methoxybenzamide]
Activity: ratio of the luminescense value of each Exemplary Compound treatment group to DMSO treatment group (PLK1): ++ (++<0.6) | IC50 (NCI-H526 cell line): < 0.03 µM | IC50 (MRC-5 cell line): > 10 µM

COc1cc(C(=O)N2CCN(CCN3CCN(c4ccc5c(c4)C(=O)N(C4CCC(=O)NC4=O)C5=O)CC3)CC2)ccc1Nc1ncc2c(n1)N(C1CCCC1)CC(F)(F)C(=O)N2C (stereo not drawn) [Compound 89, 5-(4-(2-(4-(4-((9-cyclopentyl-7,7-difluoro-5-methyl-6-oxo-6,7,8,9-tetrahydro-5H-pyrimido[4,5-b][1,4]diazepin-2-yl)amino)-3-methoxybenzoyl)piperazin-1-yl)ethyl)piperazin-1-yl)-2-(2,6-dioxopiperidin-3-yl)isoindoline-1,3-dione]
Activity: ratio of the luminescense value of each Exemplary Compound treatment group to DMSO treatment group (PLK1): ++ (++<0.6) | IC50 (NCI-H526 cell line): < 0.4 µM | IC50 (MRC-5 cell line): > 10 µM

COc1cc(C(=O)N2CCN(CCCN3CCN(c4ccc5c(c4)C(=O)N(C4CCC(=O)NC4=O)C5=O)CC3)CC2)ccc1Nc1ncc2c(n1)N(C1CCCC1)CC(F)(F)C(=O)N2C (stereo not drawn) [Compound 90, 5-(4-(3-(4-(4-((9-cyclopentyl-7,7-difluoro-5-methyl-6-oxo-6,7,8,9-tetrahydro-5H-pyrimido[4,5-b][1,4]diazepin-2-yl)amino)-3-methoxybenzoyl)piperazin-1-yl)propyl)piperazin-1-yl)-2-(2,6-dioxopiperidin-3-yl)isoindoline-1,3-dione]
Activity: ratio of the luminescense value of each Exemplary Compound treatment group to DMSO treatment group (PLK1): ++ (++<0.6) | IC50 (NCI-H526 cell line): < 0.4 µM | IC50 (MRC-5 cell line): > 10 µM

COc1cc(C(=O)N2CCN(CCCCN3CCN(c4ccc5c(c4)C(=O)N(C4CCC(=O)NC4=O)C5=O)CC3)CC2)ccc1Nc1ncc2c(n1)N(C1CCCC1)CC(F)(F)C(=O)N2C (stereo not drawn) [Compound 91, 5-(4-(4-(4-(4-((9-cyclopentyl-7,7-difluoro-5-methyl-6-oxo-6,7,8,9-tetrahydro-5H-pyrimido[4,5-b][1,4]diazepin-2-yl)amino)-3-methoxybenzoyl)piperazin-1-yl)butyl)piperazin-1-yl)-2-(2,6-dioxopiperidin-3-yl)isoindoline-1,3-dione]
Activity: ratio of the luminescense value of each Exemplary Compound treatment group to DMSO treatment group (PLK1): ++ (++<0.6) | IC50 (NCI-H526 cell line): < 0.4 µM | IC50 (MRC-5 cell line): > 10 µM

COc1cc(C(=O)N2CCN(C/C=C/CN3CCN(c4ccc5c(c4)C(=O)N(C4CCC(=O)NC4=O)C5=O)CC3)CC2)ccc1Nc1ncc2c(n1)N(C1CCCC1)CC(F)(F)C(=O)N2C (stereo not drawn) [Compound 92, (E)-5-(4-(4-(4-(4-((9-cyclopentyl-7,7-difluoro-5-methyl-6-oxo-6,7,8,9-tetrahydro-5H-pyrimido[4,5-b][1,4]diazepin-2-yl)amino)-3-methoxybenzoyl)piperazin-1-yl)but-2-en-1-yl)piperazin-1-yl)-2-(2,6-dioxopiperidin-3-yl)isoindoline-1,3-dione]
Activity: ratio of the luminescense value of each Exemplary Compound treatment group to DMSO treatment group (PLK1): ++ (++<0.6) | IC50 (NCI-H526 cell line): < 0.2 µM | IC50 (MRC-5 cell line): > 10 µM

COc1cc(C(=O)N2CCC(CCN3CCN(c4ccc5c(c4)C(=O)N(C4CCC(=O)NC4=O)C5=O)CC3)CC2)ccc1Nc1ncc2c(n1)N(C1CCCC1)CC(F)(F)C(=O)N2C (stereo not drawn) [Compound 98, 5-(4-(2-(1-(4-((9-cyclopentyl-7,7-difluoro-5-methyl-6-oxo-6,7,8,9-tetrahydro-5H-pyrimido[4,5-b][1,4]diazepin-2-yl)amino)-3-methoxybenzoyl)piperidin-4-yl)ethyl)piperazin-1-yl)-2-(2,6-dioxopiperidin-3-yl)isoindoline-1,3-dione]
Activity: ratio of the luminescense value of each Exemplary Compound treatment group to DMSO treatment group (PLK1): ++ (++<0.6) | IC50 (NCI-H526 cell line): < 0.4 µM | IC50 (MRC-5 cell line): > 10 µM

COc1cc2c(cc1Nc1ncc3c(n1)N(C1CCCC1)CC(F)(F)C(=O)N3C)CCN(C1CCN(C(=O)CCN3CCN(c4cccc5c4C(=O)N(C4CCC(=O)NC4=O)C5=O)CC3)CC1)C2=O (stereo not drawn) [Compound 102, 4-(4-(3-(4-(6-((9-cyclopentyl-7,7-difluoro-5-methyl-6-oxo-6,7,8,9-tetrahydro-5H-pyrimido[4,5-b][1,4]diazepin-2-yl)amino)-7-methoxy-1-oxo-3,4-dihydroisoquinolin-2(1H)-yl)piperidin-1-yl)-3-oxopropyl)piperazin-1-yl)-2-(2,6-dioxopiperidin-3-yl)isoindoline-1,3-dione]
Activity: ratio of the luminescense value of each Exemplary Compound treatment group to DMSO treatment group (PLK1): ++ (++<0.6) | IC50 (NCI-H526 cell line): < 0.4 µM | IC50 (MRC-5 cell line): 14.4 µM

COc1cc(C(=O)NC2CC(N(C)CCC3CCN(c4ccc5c(c4)C(=O)N(C4CCC(=O)NC4=O)C5=O)CC3)C2)ccc1Nc1ncc2c(n1)N(C1CCCC1)CC(F)(F)C(=O)N2C (stereo not drawn) [Compound 106, 4-((9-cyclopentyl-7,7-difluoro-5-methyl-6-oxo-6,7,8,9-tetrahydro-5H-pyrimido[4,5-b][1,4]diazepin-2-yl)amino)-N-(3-((2-(1-(2-(2,6-dioxopiperidin-3-yl)-1,3-dioxoisoindolin-5-yl)piperidin-4-yl)ethyl)(methyl)amino)cyclobutyl)-3-methoxybenzamide]
Activity: ratio of the luminescense value of each Exemplary Compound treatment group to DMSO treatment group (PLK1): +++ (+++: <0.3) | IC50 (NCI-H526 cell line): < 0.1 µM | IC50 (MRC-5 cell line): > 10 µM

COc1cc(C(=O)NC2CC(N(C)CCC3CCN(c4cccc5c4C(=O)N(C4CCC(=O)NC4=O)C5=O)CC3)C2)ccc1Nc1ncc2c(n1)N(C1CCCC1)CC(F)(F)C(=O)N2C (stereo not drawn) [Compound 107, 4-((9-cyclopentyl-7,7-difluoro-5-methyl-6-oxo-6,7,8,9-tetrahydro-5H-pyrimido[4,5-b][1,4]diazepin-2-yl)amino)-N-(3-((2-(1-(2-(2,6-dioxopiperidin-3-yl)-1,3-dioxoisoindolin-4-yl)piperidin-4-yl)ethyl)(methyl)amino)cyclobutyl)-3-methoxybenzamide]
Activity: ratio of the luminescense value of each Exemplary Compound treatment group to DMSO treatment group (PLK1): ++ (++<0.6) | IC50 (NCI-H526 cell line): < 0.1 µM | IC50 (MRC-5 cell line): > 10 µM

COc1cc(C(=O)N[C@H]2CC[C@H](N3CCN(CCC4CCN(c5cccc6c5C(=O)N(C5CCC(=O)NC5=O)C6=O)CC4)CC3)CC2)c(F)cc1Nc1ncc2c(n1)N(C1CCCC1)CC(F)(F)C(=O)N2C (stereo partly drawn) [Compound 114, 4-((9-cyclopentyl-7,7-difluoro-5-methyl-6-oxo-6,7,8,9-tetrahydro-5H-pyrimido[4,5-b][1,4]diazepin-2-yl)amino)-N-((1r,4r)-4-(4-(2-(1-(2-(2,6-dioxopiperidin-3-yl)-1,3-dioxoisoindolin-4-yl)piperidin-4-yl)ethyl)piperazin-1-yl)cyclohexyl)-2-fluoro-5-methoxybenzamide]
Activity: ratio of the luminescense value of each Exemplary Compound treatment group to DMSO treatment group (PLK1): ++ (++<0.6) | IC50 (NCI-H526 cell line): < 0.2 µM | IC50 (MRC-5 cell line): > 10 µM

COc1cc(C(=O)N[C@H]2CC[C@H](OC3CCN(c4cccc5c4C(=O)N(C4CCC(=O)NC4=O)C5=O)CC3)CC2)c(F)cc1Nc1ncc2c(n1)N(C1CCCC1)CC(F)(F)C(=O)N2C (stereo partly drawn) [Compound 115, 4-((9-cyclopentyl-7,7-difluoro-5-methyl-6-oxo-6,7,8,9-tetrahydro-5H-pyrimido[4,5-b][1,4]diazepin-2-yl)amino)-N-((1r,4r)-4-((1-(2-(2,6-dioxopiperidin-3-yl)-1,3-dioxoisoindolin-4-yl)piperidin-4-yl)oxy)cyclohexyl)-2-fluoro-5-methoxybenzamide]
Activity: ratio of the luminescense value of each Exemplary Compound treatment group to DMSO treatment group (PLK1): ++ (++<0.6) | IC50 (NCI-H526 cell line): < 0.4 µM | IC50 (MRC-5 cell line): > 10 µM

CN1C(=O)C(F)(F)CN(C2CCCC2)c2nc(Nc3ccc(C(=O)NC4CCN(C(=O)CCN5CCN(c6cccc7c6C(=O)N(C6CCC(=O)NC6=O)C7=O)CC5)CC4)cc3F)ncc21 (stereo not drawn) [Compound 118, 4-((9-cyclopentyl-7,7-difluoro-5-methyl-6-oxo-6,7,8,9-tetrahydro-5H-pyrimido[4,5-b][1,4]diazepin-2-yl)amino)-N-(1-(3-(4-(2-(2,6-dioxopiperidin-3-yl)-1,3-dioxoisoindolin-4-yl)piperazin-1-yl)propanoyl)piperidin-4-yl)-3-fluorobenzamide]
Activity: ratio of the luminescense value of each Exemplary Compound treatment group to DMSO treatment group (PLK1): ++ (++<0.6) | IC50 (NCI-H526 cell line): < 0.05 µM | IC50 (MRC-5 cell line): > 10 µM
